Test results: patent US9458137B2, “Substituted indol-5-ol derivatives and their therapeutical applications” (NantBioScience, Inc., priority 2012, dated 2016)

Columns and labels:
Assay in all cases: Kinase panel activity
Format in all cases: biochemical
Conditions in all cases: 0.1 μM, ATP Km
EphB4(h) = molecular target: T1, EphB4(h) (Homo sapiens, UniProt P54760)
T1 construct: purchased Millipore (KinaseProfiler service)
Method: (§1) The effect of NTW-3475 on kinase activity was tested for a wide range of kinases and is shown in Table 2: Summary Sheet, Activity % ATP Concentration: Km

TBK1(h) = molecular target: T2, TBK1(h) (Homo sapiens, UniProt Q9UHD2)
T2 construct: purchased Millipore (KinaseProfiler service)
T2 sequence (Q9UHD2 whole entry): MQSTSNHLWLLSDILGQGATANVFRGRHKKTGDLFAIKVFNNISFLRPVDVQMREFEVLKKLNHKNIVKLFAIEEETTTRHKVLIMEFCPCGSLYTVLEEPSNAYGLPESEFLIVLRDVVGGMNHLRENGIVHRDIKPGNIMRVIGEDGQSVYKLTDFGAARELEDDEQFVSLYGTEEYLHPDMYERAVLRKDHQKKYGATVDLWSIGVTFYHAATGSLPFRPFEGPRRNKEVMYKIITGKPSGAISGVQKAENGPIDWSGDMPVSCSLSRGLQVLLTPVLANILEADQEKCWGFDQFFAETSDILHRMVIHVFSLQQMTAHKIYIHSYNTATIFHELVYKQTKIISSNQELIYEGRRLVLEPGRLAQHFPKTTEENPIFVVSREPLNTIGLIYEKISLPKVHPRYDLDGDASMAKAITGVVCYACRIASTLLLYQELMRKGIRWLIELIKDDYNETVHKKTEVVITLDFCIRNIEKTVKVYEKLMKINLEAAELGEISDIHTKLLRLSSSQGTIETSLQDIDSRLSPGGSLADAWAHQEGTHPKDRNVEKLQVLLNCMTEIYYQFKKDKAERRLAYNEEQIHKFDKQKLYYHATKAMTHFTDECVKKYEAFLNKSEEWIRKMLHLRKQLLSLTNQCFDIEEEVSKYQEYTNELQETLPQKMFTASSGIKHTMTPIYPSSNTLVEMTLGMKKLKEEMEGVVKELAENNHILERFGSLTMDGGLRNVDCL
Method: as §1

AMPKα2(h) = AMPKα2(h) (Homo sapiens, UniProt P54646)
Method: as §1

FGFR1(h) = molecular target: T3, FGFR1(h) (Homo sapiens, UniProt P11362)
T3 construct: purchased Millipore (KinaseProfiler service)
Method: as §1

Met(M1268T)(h) = molecular target: T4, Met(M1268T)(h) (Homo sapiens, UniProt P08581, M1250T)
T4 construct: purchased Millipore (KinaseProfiler service)
Method: as §1

Src(1-530)(h) = molecular target: T5, Src(1-530)(h) (Homo sapiens, UniProt P12931)
T5 construct: Src(1-530)(h); purchased Millipore (KinaseProfiler service)
Method: as §1

IKKα(h) = IKKα(h) (Homo sapiens, UniProt O15111)
Method: as §1

Mnk2(h) = molecular target: T6, Mnk2(h) (Homo sapiens, UniProt Q9HBH9)
T6 construct: purchased Millipore (KinaseProfiler service)
Method: as §1

GCK(h) = GCK(h) (Homo sapiens, UniProt Q12851)
Method: as §1

PKCζ(h) = PKCζ(h) (Homo sapiens, UniProt Q05513)
Method: as §1

GRK6(h) = GRK6(h) (Homo sapiens, UniProt P43250)
Method: as §1

CaMKIIδ(h) = CaMKIIδ(h) (Homo sapiens, UniProt Q13557)
Method: as §1

FGFR1(V561M)(h) = molecular target: T7, FGFR1(V561M)(h) (Homo sapiens, UniProt P11362, V561M)
T7 construct: purchased Millipore (KinaseProfiler service)
Method: as §1

TLK2(h) = molecular target: T8, TLK2(h) (Homo sapiens, UniProt Q86UE8)
T8 construct: purchased Millipore (KinaseProfiler service)
T8 sequence (Q86UE8 whole entry): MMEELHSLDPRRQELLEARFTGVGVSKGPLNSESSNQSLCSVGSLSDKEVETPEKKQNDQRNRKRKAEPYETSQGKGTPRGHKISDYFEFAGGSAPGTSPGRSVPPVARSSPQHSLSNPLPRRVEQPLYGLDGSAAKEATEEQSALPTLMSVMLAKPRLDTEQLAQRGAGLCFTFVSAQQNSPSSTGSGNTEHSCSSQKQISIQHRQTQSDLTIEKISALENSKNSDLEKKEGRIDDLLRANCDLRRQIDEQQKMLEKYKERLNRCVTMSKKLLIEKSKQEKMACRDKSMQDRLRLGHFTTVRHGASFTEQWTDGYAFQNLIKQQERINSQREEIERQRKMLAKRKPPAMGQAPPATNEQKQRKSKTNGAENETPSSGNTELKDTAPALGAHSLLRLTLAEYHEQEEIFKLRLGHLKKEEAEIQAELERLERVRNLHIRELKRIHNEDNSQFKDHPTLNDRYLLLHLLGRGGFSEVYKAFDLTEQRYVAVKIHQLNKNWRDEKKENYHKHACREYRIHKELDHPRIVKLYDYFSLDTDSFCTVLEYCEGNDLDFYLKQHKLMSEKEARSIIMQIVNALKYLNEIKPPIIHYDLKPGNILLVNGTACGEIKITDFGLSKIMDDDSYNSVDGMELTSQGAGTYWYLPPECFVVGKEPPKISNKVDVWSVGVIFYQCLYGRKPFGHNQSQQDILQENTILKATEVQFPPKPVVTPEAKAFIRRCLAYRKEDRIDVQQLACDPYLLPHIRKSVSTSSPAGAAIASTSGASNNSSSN
Method: as §1

Pim-2(h) = Pim-2(h) (Homo sapiens, UniProt Q9P1W9)
Method: as §1

PKCγ(h) = PKCγ(h) (Homo sapiens, UniProt P05129)
Method: as §1

Rsk1(h) = molecular target: T9, Rsk1(h) (Homo sapiens, UniProt Q15418)
T9 construct: purchased Millipore (KinaseProfiler service)
Method: as §1

PKBβ(h) = PKBβ(h) (Homo sapiens, UniProt P31751)
Method: as §1

MAPK2(h) = MAPK2(h) (Homo sapiens, UniProt P28482)
Method: as §1

MKK4(m) = molecular target: T10, MKK4(m) (Mus musculus, UniProt P47809)
T10 construct: purchased Millipore (KinaseProfiler service)
Method: as §1

Pim-3(h) = Pim-3(h) (Homo sapiens, UniProt Q86V86)
Method: as §1

Rsk2(h) = molecular target: T11, Rsk2(h) (Homo sapiens, UniProt P51812)
T11 construct: purchased Millipore (KinaseProfiler service)
T11 sequence (P51812 whole entry): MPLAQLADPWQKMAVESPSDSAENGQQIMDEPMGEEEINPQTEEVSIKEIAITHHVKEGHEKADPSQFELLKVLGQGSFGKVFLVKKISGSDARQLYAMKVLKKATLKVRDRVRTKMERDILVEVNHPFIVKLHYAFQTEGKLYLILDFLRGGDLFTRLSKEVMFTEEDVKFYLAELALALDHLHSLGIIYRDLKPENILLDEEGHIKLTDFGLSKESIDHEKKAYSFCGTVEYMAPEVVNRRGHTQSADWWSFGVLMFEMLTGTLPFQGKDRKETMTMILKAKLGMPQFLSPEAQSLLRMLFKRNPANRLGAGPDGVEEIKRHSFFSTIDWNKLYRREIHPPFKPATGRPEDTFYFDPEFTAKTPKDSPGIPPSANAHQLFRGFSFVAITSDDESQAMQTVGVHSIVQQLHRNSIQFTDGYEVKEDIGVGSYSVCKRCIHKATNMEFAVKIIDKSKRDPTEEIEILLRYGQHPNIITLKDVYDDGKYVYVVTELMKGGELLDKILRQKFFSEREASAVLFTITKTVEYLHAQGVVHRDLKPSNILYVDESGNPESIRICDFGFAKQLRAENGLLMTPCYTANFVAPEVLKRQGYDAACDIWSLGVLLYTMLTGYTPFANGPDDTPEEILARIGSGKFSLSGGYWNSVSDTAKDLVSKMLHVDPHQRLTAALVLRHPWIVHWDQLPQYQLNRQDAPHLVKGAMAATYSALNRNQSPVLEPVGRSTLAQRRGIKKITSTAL
Method: as §1

PKA(h) = PKA(h) (Homo sapiens, UniProt P17612)
Method: as §1

MKK6(h) = molecular target: T12, MKK6(h) (Homo sapiens, UniProt P52564)
T12 construct: purchased Millipore (KinaseProfiler service)
T12 sequence (P52564 whole entry): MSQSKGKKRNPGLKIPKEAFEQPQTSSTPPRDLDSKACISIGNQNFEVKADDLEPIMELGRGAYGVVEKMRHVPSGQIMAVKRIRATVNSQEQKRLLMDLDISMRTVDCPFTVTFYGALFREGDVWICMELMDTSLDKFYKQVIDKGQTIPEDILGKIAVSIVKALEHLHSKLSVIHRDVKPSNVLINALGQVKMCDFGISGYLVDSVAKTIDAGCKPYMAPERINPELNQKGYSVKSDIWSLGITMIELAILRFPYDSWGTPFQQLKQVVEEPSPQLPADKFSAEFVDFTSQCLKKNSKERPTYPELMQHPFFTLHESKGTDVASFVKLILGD
Method: as §1

DAPK1(h) = DAPK1(h) (Homo sapiens, UniProt P53355)
Method: as §1

GRK7(h) = GRK7(h) (Homo sapiens, UniProt Q8WTQ7)
Method: as §1

SAPK4(h) = molecular target: T13, SAPK4(h) (Homo sapiens, UniProt O15264)
T13 construct: purchased Millipore (KinaseProfiler service)
Method: as §1

PDGFRα(h) = PDGFRα(h) (Homo sapiens, UniProt P16234)
Method: as §1

mTOR/FKBP12(h) = mTOR/FKBP12(h) (Homo sapiens, UniProt P42345)
Method: as §1

PEK(h) = PEK(h) (Homo sapiens, UniProt Q9NZJ5)
Method: as §1

DAPK2(h) = DAPK2(h) (Homo sapiens, UniProt Q9UIK4)
Method: as §1

Tie2(Y897S)(h) = molecular target: T14, Tie2(Y897S)(h) (Homo sapiens, UniProt Q02763, Y897S)
T14 construct: purchased Millipore (KinaseProfiler service)
Method: as §1

Ret(h) = molecular target: T15, Ret(h) (Homo sapiens, UniProt P07949)
T15 construct: purchased Millipore (KinaseProfiler service)
T15 sequence (P07949 29-1114): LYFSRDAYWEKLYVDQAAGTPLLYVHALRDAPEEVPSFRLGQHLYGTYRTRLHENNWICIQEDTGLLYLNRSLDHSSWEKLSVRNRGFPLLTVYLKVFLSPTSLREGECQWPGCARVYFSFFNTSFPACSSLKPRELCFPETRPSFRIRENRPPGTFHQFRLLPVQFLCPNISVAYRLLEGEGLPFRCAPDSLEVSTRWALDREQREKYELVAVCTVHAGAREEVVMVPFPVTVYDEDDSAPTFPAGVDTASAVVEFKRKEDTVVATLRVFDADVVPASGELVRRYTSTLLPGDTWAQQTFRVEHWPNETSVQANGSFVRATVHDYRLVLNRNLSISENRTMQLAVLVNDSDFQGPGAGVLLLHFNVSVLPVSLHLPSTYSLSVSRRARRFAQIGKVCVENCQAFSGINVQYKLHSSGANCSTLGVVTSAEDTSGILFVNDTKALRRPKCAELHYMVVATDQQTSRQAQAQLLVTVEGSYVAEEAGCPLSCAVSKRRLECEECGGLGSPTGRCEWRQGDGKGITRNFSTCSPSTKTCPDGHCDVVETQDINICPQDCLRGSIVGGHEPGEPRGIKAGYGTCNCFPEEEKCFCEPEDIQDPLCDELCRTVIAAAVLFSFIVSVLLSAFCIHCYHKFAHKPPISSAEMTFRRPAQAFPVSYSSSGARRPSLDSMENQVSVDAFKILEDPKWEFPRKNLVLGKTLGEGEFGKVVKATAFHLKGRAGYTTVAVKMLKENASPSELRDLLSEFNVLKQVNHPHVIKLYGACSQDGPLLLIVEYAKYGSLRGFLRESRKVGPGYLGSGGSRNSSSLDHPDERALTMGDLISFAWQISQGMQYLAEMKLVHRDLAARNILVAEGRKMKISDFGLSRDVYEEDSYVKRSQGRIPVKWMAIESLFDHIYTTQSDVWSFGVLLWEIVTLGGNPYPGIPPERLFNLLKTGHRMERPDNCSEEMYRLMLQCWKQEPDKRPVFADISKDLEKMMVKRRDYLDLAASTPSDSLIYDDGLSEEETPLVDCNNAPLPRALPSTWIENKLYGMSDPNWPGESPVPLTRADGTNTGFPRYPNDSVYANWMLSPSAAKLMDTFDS
Method: as §1

FGFR4(h) = FGFR4(h) (Homo sapiens, UniProt P22455)
FGFR4(h), sequence (P22455 22-802): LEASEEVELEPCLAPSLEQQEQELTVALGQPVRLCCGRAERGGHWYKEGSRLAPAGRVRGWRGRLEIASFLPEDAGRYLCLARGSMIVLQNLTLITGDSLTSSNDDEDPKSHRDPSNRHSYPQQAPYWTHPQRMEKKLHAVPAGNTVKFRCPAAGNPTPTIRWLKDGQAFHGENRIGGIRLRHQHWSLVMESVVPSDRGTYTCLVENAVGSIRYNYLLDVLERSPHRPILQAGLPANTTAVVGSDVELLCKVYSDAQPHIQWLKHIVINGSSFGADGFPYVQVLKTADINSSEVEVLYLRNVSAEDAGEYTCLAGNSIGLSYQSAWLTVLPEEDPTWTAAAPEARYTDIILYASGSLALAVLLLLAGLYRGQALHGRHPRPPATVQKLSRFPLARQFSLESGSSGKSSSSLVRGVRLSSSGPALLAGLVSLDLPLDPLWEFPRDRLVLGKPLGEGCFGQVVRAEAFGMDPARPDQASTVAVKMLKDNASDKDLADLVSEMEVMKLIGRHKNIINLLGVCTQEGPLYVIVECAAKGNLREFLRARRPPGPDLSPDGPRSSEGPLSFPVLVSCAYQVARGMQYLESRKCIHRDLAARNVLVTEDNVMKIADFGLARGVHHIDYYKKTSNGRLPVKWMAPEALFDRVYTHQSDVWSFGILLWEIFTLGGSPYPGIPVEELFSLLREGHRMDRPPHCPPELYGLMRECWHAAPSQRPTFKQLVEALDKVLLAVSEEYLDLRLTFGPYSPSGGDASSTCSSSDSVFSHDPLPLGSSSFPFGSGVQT
Method: as §1

1tk(h) = 1tk(h) (Homo sapiens, UniProt Q08881)
Method: as §1

SIK(h) = molecular target: T16, SIK(h) (Homo sapiens, UniProt P57059)
T16 construct: purchased Millipore (KinaseProfiler service)
Method: as §1

PASK(h) = PASK(h) (Homo sapiens, UniProt Q96RG2)
Method: as §1

MKK7β(h) = molecular target: T17, MKK7β(h) (Homo sapiens, UniProt O14733)
T17 construct: purchased Millipore (KinaseProfiler service)
T17 sequence (O14733 whole entry): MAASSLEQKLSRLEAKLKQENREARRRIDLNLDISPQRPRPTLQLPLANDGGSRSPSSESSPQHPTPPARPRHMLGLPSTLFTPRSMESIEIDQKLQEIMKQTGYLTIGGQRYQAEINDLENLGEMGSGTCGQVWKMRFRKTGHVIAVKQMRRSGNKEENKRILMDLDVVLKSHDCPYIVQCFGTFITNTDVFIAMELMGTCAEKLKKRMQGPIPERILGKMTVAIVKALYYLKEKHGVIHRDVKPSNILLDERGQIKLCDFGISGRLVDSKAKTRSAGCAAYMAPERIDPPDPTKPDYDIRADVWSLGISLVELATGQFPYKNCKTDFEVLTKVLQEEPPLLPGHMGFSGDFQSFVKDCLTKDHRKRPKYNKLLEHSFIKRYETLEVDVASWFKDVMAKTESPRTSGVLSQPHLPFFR
Method: as §1

Ab1(T3151)(h) = Ab1(T3151)(h) (Homo sapiens, UniProt P00519, T315I)
Method: as §1

## Cc1cc2c(F)c(Oc3nc(Nc4cc(C5CC5)[nH]n4)cc(N4CCN(C)CC4)n3)cc(F)c2[nH]1 [NTW-3475]
EphB4(h)
  Activity %: 14%
TBK1(h)
  Activity %: 28%
AMPKα2(h)
  Activity %: 5%
FGFR1(h)
  Activity %: −1%
Met(M1268T)(h)
  Activity %: 22%
Src(1-530)(h)
  Activity %: −2%
IKKα(h)
  Activity %: 102%
Mnk2(h)
  Activity %: 92%
GCK(h)
  Activity %: 13%
PKCζ(h)
  Activity %: 109%
GRK6(h)
  Activity %: 69%
CaMKIIδ(h)
  Activity %: 98%
FGFR1(V561M)(h)
  Activity %: −4%
TLK2(h)
  Activity %: 5%
Pim-2(h)
  Activity %: 96%
PKCγ(h)
  Activity %: 102%
Rsk1(h)
  Activity %: 84%
PKBβ(h)
  Activity %: 97%
MAPK2(h)
  Activity %: 105%
MKK4(m)
  Activity %: 100%
Pim-3(h)
  Activity %: 99%
Rsk2(h)
  Activity %: 65%
PKA(h)
  Activity %: 111%
MKK6(h)
  Activity %: 113%
DAPK1(h)
  Activity %: 88%
GRK7(h)
  Activity %: 97%
SAPK4(h)
  Activity %: 91%
PDGFRα(h)
  Activity %: 67%
mTOR/FKBP12(h)
  Activity %: 63%
PEK(h)
  Activity %: 103%
DAPK2(h)
  Activity %: 106%
Tie2(Y897S)(h)
  Activity %: 3%
Ret(h)
  Activity %: −1%
FGFR4(h)
  Activity %: 19%
1tk(h)
  Activity %: 29%
SIK(h)
  Activity %: 33%
PASK(h)
  Activity %: 91%
MKK7β(h)
  Activity %: 97%
Ab1(T3151)(h)
  Activity %: −2%
